Counter-ions that a name gives are not always drawn.
Columns and labels:
[1] = system: anti-OVA-specific IgG1 subclass antibody; assay: Adjuvant activity test: anti-OVA-specific IgG1 subclass antibody in serum of OVA-immunized mice (ELISA); assay type: in vivo, BALB/c mice; conditions: after secondary immunization, serum 2 weeks later; OVA 5 μg + compound 0.256 μmol in 5% αCD-added saline (Addavax mixed with saline at 1:1), dorsal-subcutaneous; compared to OVA single administration group
[2] = system: anti-OVA-specific IgG2a subclass antibody; assay: Adjuvant activity test: anti-OVA-specific IgG2a subclass antibody in serum of OVA-immunized mice (ELISA); assay type: in vivo, BALB/c mice; conditions: after secondary immunization, serum 2 weeks later; OVA 5 μg + compound 0.256 μmol in 5% αCD-added saline (Addavax mixed with saline at 1:1), dorsal-subcutaneous; compared to OVA single administration group

Row | SMILES | anti-OVA-specific IgG1 subclass antibody production [1] | anti-OVA-specific IgG2a subclass antibody production [2]
1 | CCCCCCCCCCCCCCCCCC(=O)N[C@H](CCCNC(=N)N)C(=O)NCCCCCCCCCCCC.Cl [SZ191, N-[(1R)-1-(dodecylcarbamoyl)-4-guanidino-butyl]octadecanamide hydrochloride] | significant enhancement | significant enhancement
2 | CCCCCCCCCCCCCCCCCCCCCC(=O)N[C@@H](CC(C)C)C(=O)NCCCCCCCCCCCC [SZ197, N-[(1S)-1-(dodecylcarbamoyl)-3-methyl-butyl]docosanamide] | tended to increase | tended to increase
3 | CCCCCCCCCCCCNC(=O)[C@H](CCCNC(=N)N)N(CCCCCCC)CCCCCCC [SZ207, (2S)-2-(diheptylamino)-N-dodecyl-5-guanidino-pentanamide dihydrochloride] | significant enhancement | significant enhancement
4 | CCCCCCCCCCCCCCCCCCCC(=O)N[C@@H](CCCNC(=N)N)C(=O)NCCCCCCCC.Cl [SZ183, N-[(1S)-4-guanidino-1-(octylcarbamoyl)butyl]icosanamide hydrochloride] | significant enhancement | significant enhancement
5 | CCCCCCCCCCCCCCCCCC(=O)N[C@@H](CCCCNC(=N)N)C(=O)NCCCCCCCCCCCC.Cl [SZ205, N-[(1S)-1-(dodecylcarbamoyl)-5-guanidino-pentyl]octadecanamide hydrochloride] | significant enhancement | significant enhancement
6 | CCCCCCCCCCCCCCCC(=O)N[C@@H](CC(C)C)C(=O)NCCCCCCCCCCCC [SZ144, N-[(1S)-1-(dodecylcarbamoyl)-3-methyl-butyl]hexadecanamide] | showed a tendency to increase | showed a tendency to increase
7 | CCCCCCCCCCCCCCCCCCCCCC(=O)NCCc1ccncc1.Cl [SZ209, N-[2-(4-pyridyl)ethyl]docosanamide hydrochloride] | tended to increase | tended to increase
8 | CCCCCCCCCCCCCCCCCCCCCC(=O)N[C@@H](CCCCNC(C)=O)C(=O)NCCCCCCCCCCCC [SZ167, N-[(1S)-5-acetamide-1-(dodecylcarbamoyl)pentyl]docosanamide] | tended to increase | tended to increase
9 | CCCCCCCC/C=C/CCCCCCCC(=O)N[C@@H](CCCNC(=N)N)C(=O)NCCCCCCCCCCCC.Cl [SZ161, (E)-N-[(1S)-1-(dodecylcarbamoyl)-4-guanidino-butyl]octadeca-9-enamide hydrochloride] | significantly increased | significantly increased
10 | CCCCCCCCCCCCCCCCOC(=O)N[C@@H](CC(C)C)C(=O)NCCCCCCCC [SZ203, hexadecyl N-[(1S)-3-methyl-1-(octylcarbamoyl)butyl]carbamate] | tended to increase | tended to increase
11 | CCCCCCCCCCCCCCCCCCCCCC(=O)N[C@@H](CCCN)C(=O)NCCCCCCCCCCCC.Cl [SZ165, N-[(1S)-4-amino-1-(dodecylcarbamoyl)butyl]docosanamide hydrochloride] | tended to increase | tended to increase
12 | CCCCCCCCCCCCCCCCCCCCCC(=O)N1CCC(C(=O)NCCCCCCCCCCCC)CC1 [SZ156, 1-docosanoyl-N-dodecyl-piperidine-4-carboxamide] | showed a tendency to increase | showed a tendency to increase
13 | CCCCCCCCCCCCCCCCCCCCCC(=O)N[C@@H](CC(C)C)C(=O)NCCCCCCCC [SZ198, N-[(1S)-3-methyl-1-(octylcarbamoyl)butyl]docosanamide] | tended to increase | tended to increase
14 | CCCCCCCCCCCCCCCCCC(=O)NCC(C)(C)C(=O)NCCCCCCCCCCCC [SZ204, N-[3-(dodecylamino)-2,2-dimethyl-3-oxo-propyl]octadecanamide] | significant enhancement | tended to increase
15 | CCCCCCCCCCCCCCCC(=O)N[C@H](CCCCN)C(=O)NCCCCCCCCCCCC.Cl [SZ194, N-[(1R)-5-amino-1-(dodecylcarbamoyl)pentyl]hexadecanamide hydrochloride] | showed a tendency to increase | showed a tendency to increase
16 | CCCCCCCCCCCCCCCCCC(=O)N[C@@H](CCCNC(=N)N)C(=O)NCCCCCCCC.Cl [SZ182, N-[(1S)-4-guanidino-1-(octylcarbamoyl)butyl]octadecanamide hydrochloride] | showed a tendency to increase | showed a tendency to increase
17 | CCCCCCCCCCCCCCCCOC(=O)N[C@@H](CCCNC(=N)N)C(=O)NCCCCCC.Cl [SZ169, Hexadecyl N-[(1S)-4-guanidino-1-(hexylcarbamoyl)butyl]carbamate hydrochloride] | tended to increase | tended to increase
18 | CCCCCCCCCCCCCCCCCCCCCC(=O)N[C@@H](CCCCNC(=N)N)C(=O)NCCCCCC.Cl [SZ170, N-[(1S)-5-guanidino-1-(hexylcarbamoyl)pentyl]docosanamide hydrochloride] | tended to increase | tended to increase
19 | CCCCCCCCCCCCCCCCNC(=O)N[C@@H](CCCNC(=N)N)C(=O)NCCCCCC.Cl [SZ168, (2S)-5-guanidino-2-(hexadecylcarbamoylamino)-N-hexyl-pentanamide hydrochloride] | tended to increase | tended to increase
20 | CCCCCCCCCCCCCCCCOC(=O)N[C@@H](CCCNC(=N)N)C(=O)NCCCCCCCCCCCC.Cl [SZ150, Hexadecyl N-[(1S)-1-(dodecylcarbamoyl)-4-guanidino-butyl]carbamate hydrochloride] | significantly increased | significantly increased

— patent US20180311342A1, “IMMUNOSTIMULATING AGENT” (AJINOMOTO CO., INC., priority 2017, published 2018)
